Experimental data taken from US10189859B2, “Derivatives of 6-(2,3-dichlorophenyl)-1,2,4-triazin-5-amine” (Nektar Therapeutics, priority 2013, dated 2019).
Where “and” joins values, the source holds several entries; their conditions need not be identical. Equal values may be shown once. Where a name gives a salt, the structure may show the parent alone. Read-outs that look alike come from different tables or passages of the source.

Columns and labels:
[1] = Pharmacokinetics after intravenous or oral dosing, plasma LC/MS/MS; assay type: in vivo; conditions: fasted male Sprague Dawley rats, oral
Description: Fasted, male Sprague Dawley rats were dosed intravenously or orally. Blood samples were collected at pre-determined time points and plasma was separated. Test article concentrations were determined in plasma by a LC/MS/MS method. Non compartmental analysis was performed to estimate the area under the plasma concentration vs. time curve (AUC). Clearance parameters (CL), bioavailabilities (F) and half-lives were calculated.

[2] = biological target: Nav1.7 sodium channels (human SCN9A gene) (Homo sapiens (Human), UniProt Q15858); assay: Automated patch clamp (IonWorks Barracuda) of Nav1.7 stably expressed in CHO cells; assay type: cell-based
Description: The potencies of the compounds provided herein to block specific Na+ channels was measured using automated patch clamp electrophysiologically of Nav1.7 sodium channels (human SCN9A gene) stably expressed in CHO cells using the IonWorks™ Barracuda system. Currents were measured from the whole cell patch configuration. From a holding potential of −90 mV, membranes were subjected to a 200 ms pre-pulse to −120 mV, then pulsed to 0 mV to measure blockade of the tonic (resting) state. Inactivated state block was elicited by repolarization to −100 mV (20 ms pulse duration), followed by depolarization to 0 mV (20 ms pulse duration). Peak inward Na+ currents were measured in the presence of vehicle or various concentrations of the test compound to determine the percent block of current. Concentration-response relationships were used to calculate IC50 values for the illustrative compounds.

[3] = inactivated state block, CHO cells, read-out: Inactivated state IC50
[4] = tonic (resting) state block, CHO cells, read-out: Tonic state IC50

Nav1.7 sodium channels (human SCN9A gene), sequence (Q15858 whole entry): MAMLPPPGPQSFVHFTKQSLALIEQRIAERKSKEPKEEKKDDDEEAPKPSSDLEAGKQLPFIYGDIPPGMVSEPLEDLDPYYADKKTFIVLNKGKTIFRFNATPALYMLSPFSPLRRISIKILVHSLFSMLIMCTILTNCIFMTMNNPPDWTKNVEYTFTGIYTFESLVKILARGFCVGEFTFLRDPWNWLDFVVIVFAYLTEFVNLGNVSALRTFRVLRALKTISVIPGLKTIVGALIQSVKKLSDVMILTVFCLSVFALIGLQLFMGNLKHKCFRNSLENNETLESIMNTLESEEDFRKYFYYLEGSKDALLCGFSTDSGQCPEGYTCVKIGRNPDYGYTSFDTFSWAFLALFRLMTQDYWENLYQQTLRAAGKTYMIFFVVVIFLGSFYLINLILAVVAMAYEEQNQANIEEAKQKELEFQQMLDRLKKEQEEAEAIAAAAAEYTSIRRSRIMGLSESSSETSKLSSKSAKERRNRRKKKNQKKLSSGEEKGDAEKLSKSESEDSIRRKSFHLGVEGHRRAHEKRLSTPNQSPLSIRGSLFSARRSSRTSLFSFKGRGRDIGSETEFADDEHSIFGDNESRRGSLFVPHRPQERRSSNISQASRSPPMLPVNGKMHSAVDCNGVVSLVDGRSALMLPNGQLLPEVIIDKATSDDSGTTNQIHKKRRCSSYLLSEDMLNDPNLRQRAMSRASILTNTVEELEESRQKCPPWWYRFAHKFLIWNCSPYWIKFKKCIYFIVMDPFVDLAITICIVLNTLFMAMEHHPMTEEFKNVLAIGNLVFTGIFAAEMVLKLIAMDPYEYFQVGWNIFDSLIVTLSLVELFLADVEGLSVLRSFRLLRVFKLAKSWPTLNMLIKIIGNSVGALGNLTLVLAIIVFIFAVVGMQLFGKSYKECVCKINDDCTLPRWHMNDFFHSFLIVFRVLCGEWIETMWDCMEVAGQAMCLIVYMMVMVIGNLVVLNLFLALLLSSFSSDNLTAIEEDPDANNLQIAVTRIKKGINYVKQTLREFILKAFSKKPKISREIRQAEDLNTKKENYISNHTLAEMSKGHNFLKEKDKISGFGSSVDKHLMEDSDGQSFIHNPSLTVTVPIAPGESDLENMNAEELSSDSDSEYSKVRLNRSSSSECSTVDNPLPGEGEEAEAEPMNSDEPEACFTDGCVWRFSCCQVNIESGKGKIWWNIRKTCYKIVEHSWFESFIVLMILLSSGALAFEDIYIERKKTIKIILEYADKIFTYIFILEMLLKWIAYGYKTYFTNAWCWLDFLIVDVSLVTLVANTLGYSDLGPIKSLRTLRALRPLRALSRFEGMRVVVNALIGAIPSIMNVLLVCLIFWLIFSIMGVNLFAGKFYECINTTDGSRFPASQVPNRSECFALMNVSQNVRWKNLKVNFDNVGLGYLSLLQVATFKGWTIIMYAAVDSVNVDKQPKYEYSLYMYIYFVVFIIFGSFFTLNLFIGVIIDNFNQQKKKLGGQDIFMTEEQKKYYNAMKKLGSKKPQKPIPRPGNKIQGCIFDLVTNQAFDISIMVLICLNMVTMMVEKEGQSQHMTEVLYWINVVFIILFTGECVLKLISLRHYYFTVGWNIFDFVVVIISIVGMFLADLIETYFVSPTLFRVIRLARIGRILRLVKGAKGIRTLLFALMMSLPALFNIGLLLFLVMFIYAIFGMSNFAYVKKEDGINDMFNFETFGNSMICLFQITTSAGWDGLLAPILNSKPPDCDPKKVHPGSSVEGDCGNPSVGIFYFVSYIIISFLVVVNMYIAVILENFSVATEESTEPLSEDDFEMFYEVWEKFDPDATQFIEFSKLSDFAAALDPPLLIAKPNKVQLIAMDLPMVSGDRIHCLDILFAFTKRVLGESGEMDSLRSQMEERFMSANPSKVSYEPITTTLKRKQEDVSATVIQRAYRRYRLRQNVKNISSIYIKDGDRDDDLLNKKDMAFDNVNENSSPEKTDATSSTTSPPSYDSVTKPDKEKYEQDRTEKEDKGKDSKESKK

Compound | exposure after oral dosing (qualitative ranking) [1] | IC50 [2, 3] | IC50 [2, 4] [µM] | IC50 ([2]; read-out: Inactivated state IC50) [µM] | IC50 ([2]; read-out: Tonic state IC50) [µM]
Nc1nc(N2CC(OCC(F)(F)F)C2)nnc1-c1cccc(Cl)c1Cl [Compound 99, 6-(2,3-dichlorophenyl)-3-(3-(2,2,2-trifluoroethoxy)azetidin-1-yl)-1,2,4-triazin-5-amine.HCl salt] | best exposure after oral dosing |  |  |  | 
COC[C@@H](O)CN(C)CC1CN(c2nnc(-c3cccc(Cl)c3Cl)c(N)n2)C1 [Compound 160, (S)-1-(((1-(5-amino-6-(2,3-dichlorophenyl)-1,2,4-triazin-3-yl)azetidin-3-yl)methyl)(methyl)amino)-3-methoxypropan-2-ol] |  | 292 µM | > 200 |  | 
COC[C@@H](O)CN[C@@H]1CCN(c2nnc(-c3cccc(Cl)c3Cl)c(N)n2)C1 [Compound 159, (S)-1-(((R)-1-(5-amino-6-(2,3-dichlorophenyl)-1,2,4-triazin-3-yl)pyrrolidin-3-yl)amino)-3-methoxypropan-2-ol] |  | 289 µM | > 200 |  | 
CC(=O)NCCOCCNc1nnc(-c2cccc(Cl)c2Cl)c(N)n1 [Compound 175, N-(2-(2-((5-amino-6-(2,3-dichlorophenyl)-1,2,4-triazin-3-yl)amino)ethoxy)ethyl)acetamide] |  | > 300 µM | > 200 |  | 
Nc1nc(N2CCN(C[C@H](O)COCC3CC3)CC2)nnc1-c1cccc(Cl)c1Cl [Compound 83, (2S)-1-{4-[5-Amino-6-(2,3-dichlorophenyl)-1,2,4-triazin-3-yl]piperazin-1-yl}-3-(cyclopropylmethoxy)propan-2-ol] |  | < 50 µM | 171 |  | 
Nc1nc(N2CCNCC23CC3)nnc1-c1cccc(Cl)c1Cl [Compound 141, 6-(2,3-dichlorophenyl)-3-(4,7-diazaspiro[2.5]octan-4-yl)-1,2,4-triazin-5-amine] |  | 149 µM | > 200 |  | 
COC[C@@H](O)CNC1(C)CCN(c2nnc(-c3cccc(Cl)c3Cl)c(N)n2)C1 (stereo partly drawn) [Compound 162, (2S)-1-((1-(5-amino-6-(2,3-dichlorophenyl)-1,2,4-triazin-3-yl)-3-methylpyrrolidin-3-yl)amino)-3-methoxypropan-2-ol] |  | 194 µM | > 200 |  | 
Nc1nc(NC2CNC2)nnc1-c1cccc(Cl)c1Cl [Compound 132, 3-N-(azetidin-3-yl) lamatrogine 2HCl salt] |  | > 300 µM | > 200 |  | 
COC[C@@H](O)CN1CCC12CCCN(c1nnc(-c3cccc(Cl)c3Cl)c(N)n1)C2 (stereo partly drawn) [Compound 161, (2S)-1-(6-(5-amino-6-(2,3-dichlorophenyl)-1,2,4-triazin-3-yl)-1,6-diazaspiro[3.5]nonan-1-yl)-3-methoxypropan-2-ol] |  | 51.4 µM | 147 |  | 
Nc1nc(N2CCN3CCOC[C@@H]3C2)nnc1-c1cccc(Cl)c1Cl [Compound 131, (S)-6-(2,3-dichlorophenyl)-3-(hexahydropyrazino[2,1-c][1,4]oxazin-8(1H)-yl)-1,2,4-triazin-5-amine di HCl salt] |  |  |  | 187 | > 200
COCCOCCOCCN1CCC(Nc2nnc(-c3cccc(Cl)c3Cl)c(N)n2)CC1 [Compound 108, 3-N-(1-N-mPEG3-piperidin-4-yl) lamotrigine] |  | 185 µM | > 200 |  | 
COCCOCCOCC(O)CNc1nnc(-c2cccc(Cl)c2Cl)c(N)n1 (stereo not drawn) [Compound 153, 1-((5-Amino-6-(2,3-dichlorophenyl)-1,2,4-triazin-3-yl)amino)-3-(2-(2-methoxyethoxy)ethoxy)propan-2-ol] |  | > 300 µM | > 200 |  | 
COC[C@@H](O)CN1CCN(c2nnc(-c3cccc(Cl)c3Cl)c(N)n2)C[C@H]1CO [Compound 134, (S)-1-((S)-4-(5-amino-6-(2,3-dichlorophenyl)-1,2,4-triazin-3-yl)-2-(hydroxymethyl)piperazin-1-yl)-3-methoxypropan-2-ol] |  | > 300 µM and 225 µM | > 200 |  | 
COC[C@@H](O)CN1CCN(c2nnc(-c3cccc(Cl)c3Cl)c(N)n2)[C@H](CO)C1 [Compound 138, (S)-1-((S)-4-(5-amino-6-(2,3-dichlorophenyl)-1,2,4-triazin-3-yl)-3-(hydroxymethyl)piperazin-1-yl)-3-methoxypropan-2-ol] |  | > 300 µM | > 200 |  | 
Nc1nc(N2CCN(CCOC(F)(F)F)CC2)nnc1-c1cccc(Cl)c1Cl [Compound 88, 6-(2,3-dichlorophenyl)-3-(4-(2-(trifluoromethoxy)ethyl)piperazin-1-yl)-1,2,4-triazin-5-amine] |  | < 50 µM | 113 |  | 
CC(C)(C)OCC(O)CN1CCN(c2nnc(-c3cccc(Cl)c3Cl)c(N)n2)[C@H](CO)C1 (stereo partly drawn) [Compound 139, 1-((S)-4-(5-amino-6-(2,3-dichlorophenyl)-1,2,4-triazin-3-yl)-3-(hydroxymethyl)piperazin-1-yl)-3-(tert-butoxy)propan-2-ol] |  | 103 µM | > 200 |  | 

Now from value to compound, other results behind:

exposure after oral dosing (qualitative ranking) [1] | IC50 [2, 3] | IC50 [2, 4] [µM] | Compound | IC50 ([2]; read-out: Inactivated state IC50) [µM] | IC50 ([2]; read-out: Tonic state IC50) [µM]
best exposure after oral dosing |  |  | CC(CO)Nc1nnc(-c2cccc(Cl)c2Cl)c(N)n1 (stereo not drawn) [Compound 182, 2-((5-amino-6-(2,3-dichlorophenyl)-1,2,4-triazin-3-yl)amino)propan-1-ol] |  | 
 | 160 µM | > 200 | C[S+]([O-])CCOCCNc1nnc(-c2cccc(Cl)c2Cl)c(N)n1 (stereo not drawn) [Compound 187, 6-(2,3-dichlorophenyl)-N3-(2-(2-(methylsulfinyl)ethoxy)ethyl)-1,2,4-triazine-3,5-diamine] |  | 
 | 273 µM | > 200 | COCCOCC(=O)N(C)CCN(C)c1nnc(-c2cccc(Cl)c2Cl)c(N)n1 [Compound 190, N-(2-((5-amino-6-(2,3-dichlorophenyl)-1,2,4-triazin-3-yl)(methyl)amino)ethyl)-2-(2-methoxyethoxy)-N-methylacetamide] |  | 
 | 100 µM | > 200 | COCCS(=O)(=O)CCOCCNc1nnc(-c2cccc(Cl)c2Cl)c(N)n1 [Compound 186, 6-(2,3-dichlorophenyl)-N3-(2-(2-((2-methoxyethyl)sulfonyl)ethoxy)ethyl)-1,2,4-triazine-3,5-diamine] |  | 
 | > 300 µM | > 200 | COCCOCC(=O)NCC(O)CNc1nnc(-c2cccc(Cl)c2Cl)c(N)n1 (stereo not drawn) [Compound 196, N-(3-((5-amino-6-(2,3-dichlorophenyl)-1,2,4-triazin-3-yl)amino)-2-hydroxypropyl)-2-(2-methoxyethoxy)acetamide] |  | 
 | 267 µM and 181 µM | > 200 | CS(=O)(=O)CCOCCNc1nnc(-c2cccc(Cl)c2Cl)c(N)n1 [Compound 176, 6-(2,3-dichlorophenyl)-N3-(2-(2-(methylsulfonyl)ethoxy)ethyl)-1,2,4-triazine-3,5-diamine] |  | 
 | > 300 µM | > 200 | CN(CCN(C)c1nnc(-c2cccc(Cl)c2Cl)c(N)n1)C(=O)COCC(N)=O [Compound 192, 2-(2-amino-2-oxoethoxy)-N-(2-((5-amino-6-(2,3-dichlorophenyl)-1,2,4-triazin-3-yl)(methyl)amino)ethyl)-N-methylacetamide] |  | 
 | < 50 µM | > 200 | COCCOCCOCC(C)CNc1nnc(-c2cccc(Cl)c2Cl)c(N)n1 (stereo not drawn) [Compound 177, 6-(2,3-dichlorophenyl)-N3-(3-(2-(2-methoxyethoxy)ethoxy)-2-methylpropyl)-1,2,4-triazine-3,5-diamine] |  | 
 | < 50 µM | > 200 | CC(C)OCCOCCOCCNc1nnc(-c2cccc(Cl)c2Cl)c(N)n1 [Compound 209, 6-(2,3-dichlorophenyl)-N3-(2-(2-(2-isopropoxyethoxy)ethoxy)ethyl)-1,2,4-triazine-3,5-diamine] |  | 
